Test results: patent EP2604600A1, “Isatin derivatives and their use in therapy” (priority 2011, dated 2013)
Converted amounts (≈) assume the structure as drawn.

Legend:
Experiment in all cases: microbe, parasite or virus in culture
Assay type in all cases: cell-based
[1] = system: ATCC 35830 Ethionamide Resistant; details: Mycobacterium tuberculosis, ATCC35830, 48 h
[2] = system: ATCC 35821 Para-aminosalicylic Resistant; details: Mycobacterium tuberculosis, ATCC35821, 48 h
[3] = system: ATCC 35822 Isoniazid Resistant; details: Mycobacterium tuberculosis, ATCC35822, 48 h
[4] = system: ATCC 35837 Ethambutol Resistant; details: Mycobacterium tuberculosis, ATCC35837, 48 h
[5] = system: ATCC 35827 Kanamycin Resistant; details: Mycobacterium tuberculosis, ATCC35827, 48 h
[6] = system: ATCC 35820 Streptomycin Resistant; details: Mycobacterium tuberculosis, ATCC35820, 48 h

Row | Compound | MIC [1] | MIC [2] | MIC [3] | MIC [4] | MIC [5] | MIC [6]
1 | O=C1Nc2ccc(Cl)cc2C1=NNC(=O)c1ccncc1 [Compound 3a] | 10 µg/mL (≈ 33.3 µM) | 25 µg/mL (≈ 83.1 µM) | 10 µg/mL (≈ 33.3 µM) | 1.25 µg/mL (≈ 4.16 µM) | 25 µg/mL (≈ 83.1 µM) | 25 µg/mL (≈ 83.1 µM)
2 | O=C1Nc2ccc([N+](=O)[O-])cc2C1=NNC(=O)c1ccncc1 [Compound 3c] | 0.5 µg/mL (≈ 1.61 µM) | 156 µg/mL (≈ 501 µM) | 10 µg/mL (≈ 32.1 µM) | 0.156 µg/mL (≈ 0.501 µM) | 312 µg/mL (≈ 1000 µM) | 156 µg/mL (≈ 501 µM)
3 | O=C1Nc2ccc(OC(F)(F)F)cc2C1=NNC(=O)c1ccc([N+](=O)[O-])o1 [Compound 3e] | 0.5 µg/mL (≈ 1.3 µM) | 0.5 µg/mL (≈ 1.3 µM) | 5 µg/mL (≈ 13 µM) | 2.5 µg/mL (≈ 6.51 µM) | 5 µg/mL (≈ 13 µM) | 25 µg/mL (≈ 65.1 µM)
4 | O=C(NN=C1C(=O)N(Cc2ccccc2)c2ccccc21)c1ccc([N+](=O)[O-])o1 [Compound 3g] | 156 µg/mL (≈ 400 µM) | 312 µg/mL (≈ 799 µM) | 156 µg/mL (≈ 400 µM) | 0.156 µg/mL (≈ 0.4 µM) | 156 µg/mL (≈ 400 µM) | 78 µg/mL (≈ 200 µM)
